PubChem BioAssay (NCI)
Values joined by “and” are separate entries in the source; they are usually repeats but may differ in a detail not shown here. Equal values may be shown once.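 Growth conditions: 96-well plates. Treatment: test compound, 48 hours, 5 concentrations. Analysis: linear interpolation between bracketing concentrations; unreached endpoints set to highest concentration. The concentration for 50% growth inhibition is given as GI50. TGI marks complete inhibition of growth.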 Where a SMILES comes first, the peptide text is derived from it. The star is where a group is joined. Boc = CC(C)(C)OC(=O)*

Legend:
Experiment in all cases: inhibition of tumour cell growth, NCI panel, 48 h
SF-295 CNS = test system: SF-295 CNS
M19-MEL melanoma = test system: M19-MEL melanoma
HOP-18 NSCLC = test system: HOP-18 NSCLC
LXFL 529 NSCLC = test system: LXFL 529 NSCLC
KM20L2 colon = test system: KM20L2 colon
DLD-1 colon = test system: DLD-1 colon
DMS 273 small cell lung = test system: DMS 273 small cell lung
SNB-78 CNS = test system: SNB-78 CNS
DMS 114 small cell lung = test system: DMS 114 small cell lung
XF 498 CNS = test system: XF 498 CNS

Row | Structure (SMILES) | TGI (SF-295 CNS) | also measured
1 | S=C1CC(c2ccc(Cl)cc2)Sc2ccccc2N1 (stereo not given) | > 100 µM | –
2 | Cc1nc2ccccc2n1CCc1nc2ccccc2s1 | > 100 µM | –
3 | COc1ccc(CNc2nc3ccccc3nc2-c2cccs2)cc1 | > 100 µM | –
4 | O=c1[nH]cnc2c1ncn2[C@H]1CO[C@@H](CO)[C@@H]1O | > 100 µM | –
5 | NS(=O)(=O)c1ccc(/C=C/c2cccc(O)c2)cc1 | > 100 µM | –
6 | O=C1CC(c2cccc(Cl)c2)n2cccc21 (stereo not given) | > 100 µM | –
7 | COc1cc2c(cc1OCCCC(=O)Nc1cc(C(=O)Nc3cc(C(=O)NCCCN(C)C)n(C)n3)n(C)n1)N=CC1CCCN1C2=O (stereo not given) | > 100 µM | –
8 | Cn1c(N/N=C/c2ccc(Cl)cc2)nc(-c2ccc(Cl)cc2)c(C#N)c1=O | 41.5 µM | –
9 | CC(=O)Nc1ccc(Nc2nc(=O)[nH]c(=O)[nH]2)cc1 | > 100 µM | –
10 | CN(C)CCOc1ccc(-c2c(Oc3ccc(Cl)cc3)c(=O)oc3ccccc23)cc1 | > 25.7 µM | –
11 | Clc1ccc(-c2nc(-c3ccc(Cl)cc3)[s+]s2)cc1 | > 100 µM | –
12 | Cc1nn(-c2ccccc2)c(C)c1/C=N/NC(=O)c1sc(=S)n(-c2ccccc2)c1N | 6.55 µM | –
13 | CC1CC[C@]2(C(=O)O)CCC3(C)C(=C2[C@H]1C)C=CC1[C@@]2(C)CC[C@H](O)C(C)(C)C2CC[C@]13C (stereo not given in full) | 47 µM | –
14 | O=C(c1ccco1)N(C(=S)N1CCN(c2ccccc2)CC1)c1ccccc1 | > 100 µM | TGI (M19-MEL melanoma): > 100 µM; TGI (HOP-18 NSCLC): > 100 µM; TGI (LXFL 529 NSCLC): > 100 µM; TGI (KM20L2 colon): > 100 µM; TGI (DLD-1 colon): > 100 µM; TGI (DMS 273 small cell lung): > 100 µM; TGI (SNB-78 CNS): > 100 µM; TGI (DMS 114 small cell lung): > 100 µM
15 | CC1(C)CCOC(=O)C(Cl)CC1Cl (stereo not given) | > 100 µM | –
16 | Clc1ccc(OCc2nnc(CCCCCCCCc3nnc(COc4ccc(Cl)cc4Cl)o3)o2)c(Cl)c1 | > 100 µM | –
17 | CC(NC(=O)C(NC(=O)OC(C)(C)C)C(C)C)C(=O)NCC(=O)O (stereo not drawn) (Boc-Val-Ala-Gly-OH; configuration not given here) | > 100 µM | –
18 | Fc1cccc2nc(-c3ccccc3)cc(OCc3ccccc3)c12 | > 100 µM | –
19 | O=[N+]([O-])C(=C(NCc1ccccc1)NCc1ccccc1)C(Cl)=C(Cl)Cl | 60.8 µM | –
20 | COc1cc(C(C#N)NNC(=O)c2ccccc2O)ccc1O (stereo not given) | > 100 µM | TGI (M19-MEL melanoma): > 100 µM; TGI (HOP-18 NSCLC): 97.9 µM; TGI (LXFL 529 NSCLC): > 100 µM; TGI (KM20L2 colon): > 100 µM; TGI (DLD-1 colon): > 100 µM; TGI (SNB-78 CNS): > 100 µM
21 | O=S1(=O)c2ccccc2N2CCCc3cc(Cl)cc1c32 | 95 µM | –
22 | Nc1cc(CO)cc(Nc2c3ccccc3nc3occc23)c1 | > 100 µM | –
23 | CN(C)c1ccc(C(c2ccc(N(C)C)cc2)c2ccc([N+](=O)[O-])cc2)cc1 | > 100 µM | –
24 | O=C1CSC2(CCN(CCCN3c4ccccc4Sc4ccc(Cl)cc43)CC2)N1 | 22 µM | –
25 | Cc1ccc(-n2c(C)nc3c2C(=O)c2ccccc2C3=O)cc1 | > 100 µM | TGI (M19-MEL melanoma): 25.7 µM; TGI (LXFL 529 NSCLC): > 100 µM; TGI (KM20L2 colon): > 100 µM; TGI (XF 498 CNS): > 100 µM; TGI (DLD-1 colon): > 100 µM; TGI (DMS 273 small cell lung): > 100 µM; TGI (SNB-78 CNS): > 100 µM
26 | CC1=Nn2c(nc3sc4c(c3c2=O)CCCC4)SC1 | > 100 µM | –
27 | NNC(=O)c1ccccc1NC(=O)/C(=C/c1ccccc1)NC(=O)c1ccccc1 | > 100 µM | –

Row | Structure (SMILES) | TGI (SF-295 CNS) | also measured
28 | COc1cccc(C2c3cc4c(cc3OC(N3CCOCC3)C2C)OCO4)c1O (stereo not given) | 42.9 µM | –
29 | COc1ccc2nc3c([N+](=O)[O-])ccc4c3c(c2c1)NCCN4C | 7.58 µM | –
30 | CC1=C(C#N)S(=O)(=O)c2c(oc(C)c2C)N1 | > 100 µM | –
31 | Cc1ccc2c3c1O[C@H]1c4nc5ccccc5cc4C[C@@]4(O)[C@@H](C2)N(CC2CC2)CC[C@]314 | 20.8 µM | –
32 | Cc1nc2c(Br)cc(Br)cc2c(=O)n1-c1ccccc1N | > 100 µM | –
33 | Cc1cc2ccccc2c[n+]1CC(=O)CC([O-])(C(F)(F)F)C(F)(F)F | > 100 µM | –
34 | CC(Nc1cc(Cl)cc(Cl)c1)c1ccncc1 (stereo not given) | 43.4 µM | –
35 | C=C[C@H]1CN2CC[C@H]1C[C@@H]2[C@@H](O)c1ccnc2ccccc12 | > 100 µM | –
36 | CCOC(=O)/C(=C\c1ccc(CO)o1)P(=O)(OCC)OCC | > 100 µM | –
37 | COc1ccc(N=C/C=C/Nc2ccc(OC)cc2)cc1 | 21.6 µM | –
38 | CC(=O)Oc1ccc2c(c1)CC[C@@H]1C2[C@@H](O[N+](=O)[O-])C[C@@]2(C)C1CC[C@@H]2O (stereo not given in full) | > 100 µM | –
39 | COC(=O)c1ccc(OCc2ccc3oc(=O)c(-c4ccccc4)nc3c2)cc1 | > 100 µM | TGI (M19-MEL melanoma): > 100 µM; TGI (HOP-18 NSCLC): > 100 µM; TGI (XF 498 CNS): > 100 µM; TGI (DLD-1 colon): 38.4 µM; TGI (DMS 273 small cell lung): > 100 µM; TGI (SNB-78 CNS): > 100 µM; TGI (DMS 114 small cell lung): > 100 µM
40 | COC(=O)CC1C2CC3C(C2=O)C13 (stereo not given) | > 100 µM | –
41 | CN(C)c1ccc(/C=N/NC2=N/C(=C\c3ccco3)C(=O)N2)cc1 | > 100 µM | –
42 | CCCCNC(=S)Nc1nc(C(=O)NNS(=O)(=O)c2ccccc2)cs1 | > 100 µM | –
43 | O=C1NC(N2CCOCC2)=N/C1=C\c1ccccc1O | > 100 µM | –
44 | NC1CCC(c2cc3ccccc3s2)(N2CCCCC2)CC1 (stereo not given) | 12.7 µM | –
45 | CN(C)Cc1cc(C(=O)O)cc(CN(C)C)c1O | > 100 µM | –
46 | Cc1ccc2[nH]c(=O)c(-c3cnc(=O)[nH]n3)c(O)c2c1 | > 100 µM | –
47 | O=C1/C(=C/c2cccs2)N=C(c2ccccc2)N1C1Nc2cc3c(cc2S1)NC(N1C(=O)/C(=C/c2cccs2)N=C1c1ccccc1)S3 (stereo not given) | > 100 µM | –
48 | COC1C(O)=C2C(=O)OC(C)(O)/C=C/C=C\C=C/C=C/C(c3ccccc3)NC(=O)/C=C/C=C/C=C/C=C/C2(C)C1O (stereo not given) | 0.0747 µM and 0.206 µM | GI50 (SF-295 CNS): 0.0296 µM
49 | CO[P@]1(=O)O[C@@H](c2ccccc2)[C@H](O)[C@]1(O)c1ccccc1 | > 100 µM | –
50 | CN(C)Cc1cc(N=Nc2ccc(Cl)c(Cl)c2)ccc1O | 31.9 µM | –
51 | CC[C@H]1C=CCC[C@@]2(C[C@@H]3CC[C@@H]4[C@H](C(=O)OCCCCCCCCCCCCCCCC(=O)N(CCCN)C[C@@H](O)CCN)[C@]5(CCC[C@@H](C)O5)NC(=[N+]34)N2)O1 | 3.52 µM | –
52 | CC(=O)O[C@H]1/C(=C/c2ccc(N(C)C)cc2)C[C@H]2[C@@H]3CC=C4C[C@@H](N5CCCC5)CC[C@]4(C)[C@H]3CC[C@]12C | > 100 µM | –
53 | COc1ccc(CN=CN/C(C#N)=C(\N)C#N)cc1OC | > 100 µM | –
54 | COc1ccc(-c2cn3c(n2)sc2cc(C)ccc23)cc1 | 52.5 µM | –

Row | Structure (SMILES) | TGI (SF-295 CNS) | also measured
55 | c1ccc2c(c1)SC1Sc3ccccc3[S+]21 (stereo not given) | > 100 µM | –
56 | O=C(CCCC(=O)N1CC(CCl)c2ccc([N+](=O)[O-])cc21)N1CC(CCl)c2ccc([N+](=O)[O-])cc21 (stereo not given) | > 100 µM | –
57 | COc1cc2[nH]c(-c3ccccc3)cc(=O)c2cc1OC | > 100 µM | –
58 | Cc1nnc2c3c(-c4ccccc4)c(-c4ccccc4)oc3nc(N(C)C)n12 | > 100 µM | –
59 | COc1ccc2c(c1)CC[C@@H]1[C@@H]2CC[C@]2(C)/C(=N/OCCN3CCCCC3)CC[C@@H]12 | 12.6 µM | –
60 | Cn1c2ccccc2n2c3nc4ccccc4nc3c(C#N)c12 | > 100 µM | TGI (M19-MEL melanoma): > 100 µM; TGI (HOP-18 NSCLC): > 100 µM; TGI (LXFL 529 NSCLC): > 100 µM; TGI (XF 498 CNS): > 100 µM; TGI (DLD-1 colon): > 100 µM; TGI (DMS 273 small cell lung): > 100 µM; TGI (DMS 114 small cell lung): > 100 µM
61 | C/C(=N/O)c1cccc(Nc2nc3ccccc3c3[nH]c4ccccc4c23)c1 | 5.58 µM | –
62 | COc1ccc(-c2cc(-c3ccc(Nc4ccnc5cc(Cl)ccc45)cc3)nc(N)c2C#N)c2ccccc12 | > 100 µM | –
63 | COC(=O)C(Cc1ccccc1)NC(=O)CNC(=O)CSc1nnc(COc2ccc(Cl)cc2)n1-c1ccccc1 (stereo not given) | 31.7 µM | –
64 | CN(C)CCCOC(=O)C(O)(Cc1ccccc1)C1CC1 (stereo not given) | > 100 µM | –
65 | CCN(CC)C(=O)CCCCCCCCC1CO1 (stereo not given) | > 100 µM | –
66 | COC(=O)c1c(O)ccc2c1c1c(n2C)C(=O)c2ccccc2C1=O | 65.6 µM | –
67 | CCn1c2c(c3c(C(=O)OC)c(O)ccc31)C(=O)c1ccccc1C2=O | 47.1 µM | –
68 | COC(=O)/C=C1/OC(c2ccccc2)=C(Cl)C1=O | > 65.1 µM | –
69 | CC1(C)N=C(N)N=C(N)N1c1cccc(CSc2ccccc2)c1 | > 100 µM | –
70 | COC1CCC(OC2CC(C3(C)CCC4(CC(O)C(C)C(C(C)/C=C(\C)C(=O)C(C)CC(C)C(=O)O)O4)O3)OC3(OC(C4OC(O)(CO)C(C)CC4C)CC3C)C2C)OC1C (stereo not given) | 1.79 µM | –
71 | COc1cc(C2c3cc4c(cc3OC(N3CCOCC3)C2C)OCO4)cc(OC)c1O (stereo not given) | 15.8 µM | –
72 | COc1cccc(-c2cc(=O)c3cc(C)cnc3[nH]2)c1 | > 100 µM | –
73 | C=C(Br)CN(C#N)CC(=C)Br | > 100 µM | –
74 | Brc1ccc2c(c1)C1=C(CO2)Cc2ccccc2O1 | 35.4 µM | –
75 | c1ccc(N=NNNc2ccc(-c3nc4ccccc4[nH]3)cc2)cc1 | 68 µM | –
76 | O=C(CSC1=NCCN1)c1ccccc1 | > 100 µM | –
77 | CCCCCc1c(CCCC)c(=O)[nH]c2cc(CNCC(OC)OC)ccc12 | 32.2 µM | –
78 | CN(C)c1ccc(/C=C2\N=C(c3ccccc3)N(c3nc4c(Cl)cc(Cl)cc4s3)C2=O)cc1 | > 100 µM | –
79 | O=C1CC(O)c2c(Cl)sc(Cl)c21 (stereo not given) | > 59.3 µM | –
